For one test, the system named is pAkt(5473), BT474 cells. Briefly: In-cell Western assay, pAkt(5473) in BT474 cells. In kind it is cell-based. The settings on record: Homo sapiens, BT-474, BT474 cell line, read-out: inhibition of pAkt(5473), IC50.
The test system of the next test is pAkt(5473), T47D cells. Briefly: In-cell Western assay, pAkt(5473) in T47D cells. In kind it is cell-based. The settings on record: Homo sapiens, T47D cell line, read-out: inhibition of pAkt(5473), IC50.
Another test deals with pS6RP, T47D cells. Briefly: In-cell Western assay, pS6RP in T47D cells. In kind it is cell-based. The settings on record: Homo sapiens, T47D cell line, read-out: inhibition of pS6RP, IC50.
A further test has as its system BT474 cells. Briefly: XTT assay for cell viability, BT474 cells. In kind it is cell-based. The settings on record: Homo sapiens, BT-474, read-out: inhibition of cell proliferation, IC50. The method, then:
(§1) Using a commercial kit from Sigma Aldrich (Catalog #X34251) and following its protocol, PC3 cells in the log phase of growth were employed and seeded at an optimal density of 1000 cell/well on to 96 well plates and incubated for 24 h followed by the addition of compounds of formula (I) in serial dilutions. Compound dilutions were made in DMSO. The cells were incubated with the compounds of formula (I) for 96 h and XTT tetrazolium dye (Sigma, USA) was subsequently added and incubated at 37° C. After the color formation, absorbance was measured at 465 nm in a Spectramax® Gemini spectrophotometer. EC50 values were calculated using a sigmoidal dose response curve fit in GraphPad Prism® v5 software. The tested compounds of formula (I) which caused inhibition of PC3 cell proliferation as determined by this assay protocol are shown in Table 2.
(§2) XTT assays for cell viability are also determined in BT474 cells and T47D cells, in a similar manner to the protocol described above.

The next test relates to T47D cells. As to the kind of experiment: XTT assay for cell viability, T47D cells. In kind it is cell-based. The conditions noted are these: Homo sapiens, read-out: inhibition of cell proliferation, IC50. Here is the method:
as §1, §2

For the next test, the target named is PI3 kinase isoform γ (Homo sapiens, UniProt P48736). Briefly: PI3 Kinase TR-FRET assay, isoform γ. In kind it is biochemical. The settings on record: read-out: inhibition of PI3 kinase isoform γ, IC50. Here is the method: The ability of compounds of the invention to inhibit PI3K activity was determined in a homogeneous TR-FRET assay using a PI3K assay kit (Millipore, USA; cat #33-016) according to manufacturer's instructions. PI3-Kinases (isoforms α, β, γ and δ) catalyze the phosphorylation of phosphatidylinositol, PIP2 to PIP3 in the presence of ATP and Mg^2+. The PIP3 product is detected by displacement of biotin-PIP3 from an energy transfer complex consisting of Europium labeled anti-GST monoclonal antibody, a GST-tagged PH domain, biotinylated PIP3 and Streptavidin-APC. Excitation of Europium in the complex results in an energy transfer to the APC and a fluorescence emission at 665 nm. The PIP3 product displaces biotin-PIP3 from the complex resulting in a loss of energy transfer and thus a decrease in signal.
PI3 kinase isoform γ, sequence (P48736 whole entry, the tested form may be a part, canonical isoform): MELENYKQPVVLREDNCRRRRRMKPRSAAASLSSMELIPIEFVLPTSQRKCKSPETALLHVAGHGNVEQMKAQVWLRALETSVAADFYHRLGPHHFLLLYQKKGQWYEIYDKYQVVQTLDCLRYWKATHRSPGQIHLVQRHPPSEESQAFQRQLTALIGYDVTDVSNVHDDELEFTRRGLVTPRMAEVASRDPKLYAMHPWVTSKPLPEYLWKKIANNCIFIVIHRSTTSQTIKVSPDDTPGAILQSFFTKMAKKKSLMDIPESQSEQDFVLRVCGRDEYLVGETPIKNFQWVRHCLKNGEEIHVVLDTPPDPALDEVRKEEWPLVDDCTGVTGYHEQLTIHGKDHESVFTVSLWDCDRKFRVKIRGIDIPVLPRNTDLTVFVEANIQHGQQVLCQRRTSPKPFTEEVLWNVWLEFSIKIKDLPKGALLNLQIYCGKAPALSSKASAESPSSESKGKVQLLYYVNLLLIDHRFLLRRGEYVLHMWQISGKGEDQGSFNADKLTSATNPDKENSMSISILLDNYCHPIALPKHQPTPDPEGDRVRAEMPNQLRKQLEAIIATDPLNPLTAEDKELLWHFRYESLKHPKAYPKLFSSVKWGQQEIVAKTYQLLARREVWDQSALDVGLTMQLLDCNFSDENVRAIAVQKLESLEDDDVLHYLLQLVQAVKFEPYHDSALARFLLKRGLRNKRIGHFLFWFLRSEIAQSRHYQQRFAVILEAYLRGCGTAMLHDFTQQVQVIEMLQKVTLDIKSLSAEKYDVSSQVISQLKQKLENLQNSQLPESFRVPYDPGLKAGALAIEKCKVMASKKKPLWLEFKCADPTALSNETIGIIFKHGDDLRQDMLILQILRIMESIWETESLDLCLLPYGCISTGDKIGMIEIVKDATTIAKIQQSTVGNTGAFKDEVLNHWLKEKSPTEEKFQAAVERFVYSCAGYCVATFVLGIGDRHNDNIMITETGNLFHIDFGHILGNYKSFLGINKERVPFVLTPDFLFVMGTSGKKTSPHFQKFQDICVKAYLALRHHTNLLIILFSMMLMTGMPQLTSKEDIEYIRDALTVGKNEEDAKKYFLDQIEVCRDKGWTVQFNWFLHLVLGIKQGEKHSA
To test for the ability of compounds to inhibit the activity of PI3Kα (wild-type), exemplary compounds of formula (I) were dissolved in DMSO and directly distributed into 384-well plates at a volume of 0.5 μL. […] Fluorescence was measured at 615 and 665 nm upon excitation at 340 nm in a Victor™ V5 fluorometer (Perkin Elmer, USA). The fluorescence emission ratio at 665 to 615 nm, proportional to the kinase activity, was plotted against the compound concentration to generate dose-response curves and IC50 values were determined using GraphPad Prism® 5 software. […]
A general note: TR-FRET usually uses a lanthanide donor and a delayed reading to cut background.

As to `CN(C)C(=O)c1ccc(NC(=O)Nc2ccc(-c3nc(N4CCOCC4)c4ccc(-c5cncnc5)cc4n3)cc2)cc1` [Example 1, N,N-Dimethyl-4-(3-{4-[4-morpholin-4-yl-7-pyrimidin-5-yl-quinazolin-2-yl)-phenyl]-ureido}-benzamide], the IC50 in the test on pAkt(5473), BT474 cells is below 300 nM; in the test with pAkt(5473), T47D cells it was below 300 nM; with pS6RP, T47D cells it was below 50 nM; in the test on BT474 cells, below 100 nM; in the test with T47D cells it was below 100 nM.

`Cc1ccc(-c2ccc3c(N4CCOCC4)nc(-c4ccc(NC(=O)Nc5ccc(C(=O)N(C)C)cc5)cc4)nc3c2)o1` [Example 2, N,N-Dimethyl-4-(3-{4-[7-(5-methyl-furan-2-yl)-4-morpholin-4-yl-quinazolin-2-yl]-phenyl}-ureido)-benzamide]: the IC50 on PI3 kinase isoform γ is below 1000 nM.

Values taken from patent US9115092B2, “Substituted quinazoline and pyrido-pyrimidine derivatives” (Asana Biosciences, LLC, priority 2010, dated 2015).
